# Where “and” joins values, the source holds several entries; their conditions need not be identical. Identical values can stand only once.
# What was measured:
# [1] = biological target: T1, 12-LOX (Homo sapiens, UniProt P18054); assay: 12-LOX fluorescent assay (in vitro lipoxygenase inhibition); assay type: biochemical; conditions: 100 nM recombinant 12-LOX, 20 μM AA, DHR123 fluorescence; several values in a cell = repeat determinations; read-out: IC50 (μM) values for in vitro lipoxygenase inhibition, 12-LOX
# T1 sequence (P18054 1-663): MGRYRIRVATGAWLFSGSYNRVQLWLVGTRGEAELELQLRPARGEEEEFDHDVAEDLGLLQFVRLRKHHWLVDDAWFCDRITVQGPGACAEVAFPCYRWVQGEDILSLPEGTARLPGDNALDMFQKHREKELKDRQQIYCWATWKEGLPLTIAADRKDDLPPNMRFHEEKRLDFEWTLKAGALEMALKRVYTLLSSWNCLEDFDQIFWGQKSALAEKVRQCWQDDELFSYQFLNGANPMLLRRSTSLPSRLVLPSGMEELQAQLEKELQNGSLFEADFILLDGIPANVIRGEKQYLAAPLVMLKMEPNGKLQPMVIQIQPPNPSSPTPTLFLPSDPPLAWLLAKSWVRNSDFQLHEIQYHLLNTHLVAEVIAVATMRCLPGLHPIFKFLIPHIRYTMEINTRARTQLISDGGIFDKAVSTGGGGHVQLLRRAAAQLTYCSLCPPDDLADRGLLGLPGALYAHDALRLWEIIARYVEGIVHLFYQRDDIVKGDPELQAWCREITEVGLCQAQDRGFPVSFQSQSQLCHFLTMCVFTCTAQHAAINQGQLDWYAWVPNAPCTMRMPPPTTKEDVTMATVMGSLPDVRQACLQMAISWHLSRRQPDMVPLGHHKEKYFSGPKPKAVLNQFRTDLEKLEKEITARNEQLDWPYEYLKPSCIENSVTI
# Description: 12-LOX/15-LOX Fluorescent Assay
# The enzyme assay (100 ul) contained 50 mM Tris, pH 7.5, 0.05% Tween-20, 20 μM AA/LA, 1 μM DHR123, and 100 nM recombinant 12-LOX enzyme/50 nM recombinant 15-LOX enzyme. Inhibitors (dissolved in DMSO) were plated at 1 μL into 96-well assay microplates followed by a 40 μL addition of a solution containing 12-LOX/15-LOX enzyme. Enzyme was pre-incubated with compounds for 15 mins. The assay was initiated by the addition of a 40 μL substrate solution containing AA/LA, and 20μL addition of a solution containing DHR123. […] Percent inhibition was calculated for each compound dose for IC50 curve fitting using 4 Parameter Logistic Model or Sigmoidal Dose-Response Model.
# [2] = biological target: T2, 5-LOX (Homo sapiens, UniProt P09917); assay: 5-LOX fluorescent assay (in vitro lipoxygenase inhibition); assay type: biochemical; conditions: recombinant 5-LOX cell lysate, 20 μM AA, DHR123 fluorescence; several values in a cell = repeat determinations; read-out: IC50 (μM) values for in vitro lipoxygenase inhibition, 5-LOX
# T2 sequence (P09917 1-674): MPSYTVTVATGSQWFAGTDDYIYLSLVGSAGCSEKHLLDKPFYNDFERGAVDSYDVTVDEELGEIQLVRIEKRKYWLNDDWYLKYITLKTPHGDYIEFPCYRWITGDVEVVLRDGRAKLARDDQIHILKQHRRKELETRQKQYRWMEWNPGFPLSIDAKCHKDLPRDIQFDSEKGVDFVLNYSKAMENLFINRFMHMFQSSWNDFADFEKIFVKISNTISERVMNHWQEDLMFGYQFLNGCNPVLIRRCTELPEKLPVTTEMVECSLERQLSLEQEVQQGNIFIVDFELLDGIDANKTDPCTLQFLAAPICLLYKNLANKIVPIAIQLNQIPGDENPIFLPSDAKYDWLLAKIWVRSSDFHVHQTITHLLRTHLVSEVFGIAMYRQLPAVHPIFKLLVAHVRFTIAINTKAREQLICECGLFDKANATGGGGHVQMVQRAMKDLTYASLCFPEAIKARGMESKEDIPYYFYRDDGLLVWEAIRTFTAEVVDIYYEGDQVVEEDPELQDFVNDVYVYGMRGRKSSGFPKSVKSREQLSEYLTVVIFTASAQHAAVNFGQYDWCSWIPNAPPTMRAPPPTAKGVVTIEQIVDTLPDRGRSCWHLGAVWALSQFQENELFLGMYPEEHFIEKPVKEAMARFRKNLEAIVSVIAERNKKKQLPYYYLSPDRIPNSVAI
# Description: 5-LOX FI assay Fluorescent Assay
# The enzyme assay (100 μL) contained 50 mM Tris, pH 7.5, 0.1 mM EDTA, 0.3 mM CaCl2, 20 μM AA, 100 μM ATP, 1 μM DHR123, and recombinant 5-LOX cell lysate (0.5 μL/100 μL). Inhibitors (dissolved in DMSO) were plated at 1 μL into 96-well assay microplates followed by a 40 μL addition of a solution containing 5-LOX enzyme. Enzyme was pre-incubated with compounds for 15 mins. The assay was initiated by the addition of a 40 μL substrate solution containing AA and ATP, and 20 μL addition of a solution containing DHR123. […] Percent inhibition was calculated for each compound dose for IC50 curve fitting using 4 Parameter Logistic Model or Sigmoidal Dose-Response Model.
Compound,IC50 [1],IC50 [2]
"c1ccc(CNc2ccc(NCCn3cncn3)c(-c3cccnc3)c2)cc1 [SS20308-0216-01, N^1-(2-(1H-1,2,4-triazol-1-yl)ethyl)-N^4-benzyl-2-(pyridin-3-yl)benzene-1,4-diamine]",0.03 µM,0.04 µM
"c1ccc(-c2cc(NCC3CCCCC3)ccc2NCCn2cncn2)cc1 [SS20308-0217-01, N^2-(2-(1H-1,2,4-triazol-1-yl)ethyl)-N^5-(cyclohexylmethyl)-[1,1′-biphenyl]-2,5-diamine]",0.02 µM and 0.04 µM,0.02 µM and 0.06 µM
"c1ccc(CNc2ccc(NCCn3cncn3)c(-c3cccs3)n2)cc1 [SS20308-0218-01, N^5-(2-(1H-1,2,4-triazol-1-yl)ethyl)-N^2-benzyl-6-(thiophen-2-yl)pyridine-2,5-diamine]",0.01 µM,0.02 µM
"c1ccc(CNc2cnc(-c3ccccc3)c(NCCn3cncn3)c2)cc1 [SS20308-0219-01, N^3-(2-(1H-1,2,4-triazol-1-yl)ethyl)-N^5-benzyl-2-phenylpyridine-3,5-diamine]",2.68 µM,4.78 µM
"c1ccc(CNc2ccc(-c3ccccc3)c(NCCn3cncn3)n2)cc1 [SS20308-0221-01, N^2-(2-(1H-1,2,4-triazol-1-yl)ethyl)-N^6-benzyl-3-phenylpyridine-2,6-diamine]",0.11 µM,0.66 µM
"Fc1ccc(CNc2ccc(NCCn3cncn3)c(-c3cccc4cc[nH]c34)c2)cc1 [SS20308-0225-01, N^1-(2-(1H-1,2,4-triazol-1-yl)ethyl)-N^4-(4-fluorobenzyl)-2-(1H-indol-7-yl)benzene-1,4-diamine]",0.03 µM,0.05 µM
"FC(F)(F)C(Nc1ccc(NCCn2cncn2)c(-c2ccccc2)c1)c1ccccc1 (stereo not drawn) [SS20308-0226-01, N^2-(2-(1H-1,2,4-triazol-1-yl)ethyl)-N^5-(2,2,2-trifluoro-1-phenylethyl)-[1,1′-biphenyl]-2,5-diamine]",0.06 µM,0.14 µM
"Fc1ccc(CNc2cc(F)c(NCCn3cncn3)c(-c3ccccc3)c2)cc1 [SS20308-0227-01, N^2-(2-(1H-1,2,4-triazol-1-yl)ethyl)-3-fluoro-N^5-(4-fluorobenzyl)-[1,1′-biphenyl]-2,5-diamine]",0.03 µM,0.39 µM
"Fc1ccc(CNc2ccc(NCCn3cncn3)c(-c3ccccc3)c2F)cc1 [SS20308-0228-01, N^2-(2-(1H-1,2,4-triazol-1-yl)ethyl)-6-fluoro-N^5-(4-fluorobenzyl)-[1,1′-biphenyl]-2,5-diamine]",0.02 µM,0.16 µM
"Fc1ccc(C(Nc2ccc(NCCn3cncn3)cc2)C(F)(F)F)cc1 (stereo not drawn) [SS20308-0232-01, N^1-(2-(1H-1,2,4-triazol-1-yl)ethyl)-N^4-(2,2,2-trifluoro-1-(4-fluorophenyl)ethyl)benzene-1,4-diamine]",0.14 µM,0.69 µM

# Further lines, results first:
IC50 [1],IC50 [2],Compound
0.11 µM,0.49 µM,"c1ccc(Nc2cccc(NCCn3cncn3)c2)cc1 [SS20308-0223-01, N^1-(2-(1H-1,2,4-triazol-1-yl)ethyl)-N^3-phenylbenzene-1,3-diamine]"
0.02 µM,0.08 µM and 0.26 µM,"Fc1ccc(CNc2cc(-c3ccccc3)c(NCCn3cncn3)cc2F)cc1 [SS20308-0229-01, N2-(2-(1H-1,2,4-triazol-1-yl)ethyl)-4-fluoro-N5-(4-fluorobenzyl)-[1,1′-biphenyl]-2,5-diamine]"
0.04 µM and 0.03 µM,0.1 µM and 0.18 µM,"Fc1ccc(CNc2ccc(NCCCn3cncn3)c(F)c2)cc1 [SS20308-0236-01, N^1-(3-(1H-1,2,4-triazol-1-yl)propyl)-2-fluoro-N^4-(4-fluorobenzyl)benzene-1,4-diamine]"
0.18 µM,0.28 µM,"Cc1ccc(NCc2ccc(F)cc2)cc1NCCCn1cncn1 [SS20308-0237-01, N^3-(3-(1H-1,2,4-triazol-1-yl)propyl)-N^1-(4-fluorobenzyl)-4-methylbenzene-1,3-diamine]"
0.17 µM,0.4 µM,"c1cc(NCCCn2cncn2)cc(NC2CCCCC2)c1 [SS20308-0238-01, N^1-(3-(1H-1,2,4-triazol-1-yl)propyl)-N^3-cyclohexylbenzene-1,3-diamine]"
